{
  "source": "patent US20200305483A1",
  "about": "“SOURNESS ENHANCERS COMPRISING A CYCLOHEXANECARBOXYLIC ACID” (Firmenich SA, priority 2017, published 2020)",
  "type_in_all_cases": "in vivo",
  "key": {"[1]": {"test": "Sensory evaluation of sweet, sour and astringent intensities, model system comprising citric acid", "method": "A sucrose (5% by weight), and citric acid (0.05% by weight) solution was prepared and used for evaluating the sourness enhancement effect of a cyclohexanecarboxylic acid having the structure: The evaluation consisted of (i) a test solution of 50 ppm of the cyclohexanecarboxylic acid in the sucrose/citric acid solution; and (ii) a control solution comprising the sucrose/citric acid solution only. 28 trained panelists were asked to evaluate the sweet, sour and astringent intensities for each sample on a linear scale from 0 to 10, where 0 correlated with “no taste” and 10 correlated with “too strong to taste”."}, "[2]": {"test": "Paired comparison of sourness, model system comprising tartaric acid", "settings": "50 ppm in 5% sucrose / 0.05% tartaric acid, pH 2.9 (±0.02), 95% confidence level", "method": "A sucrose (5% by weight) and tartaric acid (0.05% by weight) solution was prepared and used for evaluating the sourness enhancement effect of a cyclohexanecarboxylic acid having the structure: The evaluation consisted of (i) a test solution of 50 ppm of the cyclohexanecarboxylic acid in the sucrose/tartaric acid solution; and (ii) a control solution comprising the sucrose/tartaric acid solution only. 41 subjects were asked to select out more sour sample in each pair. The pH of the samples was 2.9 (±0.02)."}, "[3]": {"test": "Paired comparison of sourness, model system comprising citric and lactic acid", "settings": "50 ppm in 5% sucrose / 0.07% citric acid / 0.09% lactic acid, pH 2.9 (±0.02), 95% confidence level", "method": "A sucrose (5% by weight), citric acid (0.07% by weight), and lactic acid (0.09% by weight) solution was prepared and used for evaluating the sourness enhancement effect of a cyclohexanecarboxylic acid having the structure: The evaluation consisted of (i) a test solution of 50 ppm of the cyclohexanecarboxylic acid in the sucrose/citric-lactic acid solution; and (ii) a control solution comprising the sucrose/citric-lactic acid solution only. 41 subjects were asked to select out more sour sample in each pair. The pH of the samples was 2.9 (±0.02)."}, "[4]": {"test": "Paired comparison study (2-AFC) of sourness, model system comprising malic acid", "settings": "50 ppm in 5% sucrose / 0.05% malic acid, pH 3.1 (±0.02), 95% confidence level", "method": "A sucrose (5% by weight) and malic acid (0.05% by weight) solution was prepared and used for evaluating the sourness enhancement effect of a cyclohexanecarboxylic acid having the structure: The evaluation consisted of (i) a test solution of 50 ppm of the cyclohexanecarboxylic acid in the sucrose/malic acid solution; and (ii) a control solution comprising the sucrose/malic acid solution only. In a repeat experiment using 41 trained subjects, 41 subjects were asked to select the more sour sample in each pair, in a paired comparison study (2-AFC). The pH of the samples was 3.1 (±0.02). 28 out of 41 subjects found the sample containing compound I at 50 ppm was more sour at a 95% confidence level."}, "[5]": {"test": "Sensory evaluation of sweet, sour and astringent intensities, model system comprising malic acid", "method": "A sucrose (5% by weight) and malic acid (0.05% by weight) solution was prepared and used for evaluating the sourness enhancement effect of a cyclohexanecarboxylic acid having the structure: The evaluation consisted of (i) a test solution of 50 ppm of the cyclohexanecarboxylic acid in the sucrose/malic acid solution; and (ii) a control solution comprising the sucrose/malic acid solution only. 27 trained panelists were asked to evaluate the sweet, sour and astringent intensities for each sample on a linear scale from 0 to 10, where 0 corresponded to “no taste” and 10 corresponded to “too strong to taste”."}, "[6]": {"settings": "50 ppm (by weight) in sucrose/citric acid solution, versus reference sample"}, "[7]": {"settings": "50 ppm (by weight) in sucrose/malic acid solution, versus reference sample"}},
  "data": [
    {"smiles": "O=C(/C=C/c1ccc(O)c(O)c1)O[C@@H]1C[C@](O)(C(=O)O)C[C@@H](O)[C@H]1O", "note": "[compound I]", "values": [
      {"measurement": "change of astringency intensity", "setting": "[1]; [6]", "value": 28.0, "unit": "%"},
      {"measurement": "decrease of sweetness intensity", "setting": "[1]; [6]", "value": 11.6, "unit": "%"},
      {"measurement": "astringency intensity (tested sample)", "setting": "[1]; 50 ppm in 5% sucrose / 0.05% citric acid, 28 trained panelists, scale 0 to 10, reference sample 2.5", "value": 3.2},
      {"measurement": "sweetness intensity (tested sample)", "setting": "[1]; 50 ppm in 5% sucrose / 0.05% citric acid, 28 trained panelists, scale 0 to 10, reference sample 4.3, 95% confidence level", "value": 3.8},
      {"measurement": "sourness intensity, change versus reference sample", "setting": "[1]; 50 ppm in 5% sucrose / 0.05% citric acid, pH value also unchanged", "value": "Without changing"},
      {"measurement": "subjects who found that adding the compound increased sourness", "setting": "[2]", "value": "28 out of 41 subjects"},
      {"measurement": "subjects who found that adding the compound increased sourness", "setting": "[3]", "value": "29 out of 41 subjects"},
      {"measurement": "subjects who found the sample containing the compound more sour", "setting": "[4]", "value": "28 out of 41 subjects"},
      {"measurement": "enhancement of astringency intensity", "setting": "[5]; [7]", "value": 24.0, "unit": "%"},
      {"measurement": "enhancement of sourness intensity", "setting": "[5]; [7]", "value": 22.5, "unit": "%"},
      {"measurement": "sourness intensity (tested sample)", "setting": "[5]; 50 ppm in 5% sucrose / 0.05% malic acid, 27 trained panelists, linear scale 0 to 10, reference sample 4.0, 95% confidence level", "value": 4.9},
      {"measurement": "astringency intensity (tested sample)", "setting": "[5]; 50 ppm in 5% sucrose / 0.05% malic acid, 27 trained panelists, scale 0 to 10, reference sample 2.5, 99% confidence level", "value": 3.1},
      {"measurement": "sweet intensity, change versus reference sample", "setting": "[5]; 50 ppm in 5% sucrose / 0.05% malic acid, pH value also unchanged", "value": "Without changing"}
    ]}
  ]
}
